Assay results taken from ChEMBL document CHEMBL1201862, “PubChem BioAssay data set” (2004).
The source made the active and inactive calls.

How the values were obtained:
Type in all cases: functional
[1] = target: Benomyl/methotrexate resistance protein (Candida albicans, UniProt P28873); test: CaMdr1 efflux pump inhibitor potency, dose response, singleplex, Cherry Pick1 hits (AID 588608)
[2] = target: T1, Multidrug resistance protein CDR1 (Candida albicans, UniProt P43071); test: CaCDR1 efflux pump inhibitors in yeast, dose response, S. cerevisiae AD1-8u, singleplex, Cherry Pick1 hits (AID 588606)
[3] = target: T2, Multidrug resistance protein CDR2 (Candida albicans (strain SC5314 / ATCC MYA-2876) (Yeast), UniProt P78595); test: CaCDR2 efflux pump inhibitors in yeast, dose response, S. cerevisiae AD1-8u, singleplex, Cherry Pick1 hits (AID 588604)
T2 sequence (P78595 whole entry): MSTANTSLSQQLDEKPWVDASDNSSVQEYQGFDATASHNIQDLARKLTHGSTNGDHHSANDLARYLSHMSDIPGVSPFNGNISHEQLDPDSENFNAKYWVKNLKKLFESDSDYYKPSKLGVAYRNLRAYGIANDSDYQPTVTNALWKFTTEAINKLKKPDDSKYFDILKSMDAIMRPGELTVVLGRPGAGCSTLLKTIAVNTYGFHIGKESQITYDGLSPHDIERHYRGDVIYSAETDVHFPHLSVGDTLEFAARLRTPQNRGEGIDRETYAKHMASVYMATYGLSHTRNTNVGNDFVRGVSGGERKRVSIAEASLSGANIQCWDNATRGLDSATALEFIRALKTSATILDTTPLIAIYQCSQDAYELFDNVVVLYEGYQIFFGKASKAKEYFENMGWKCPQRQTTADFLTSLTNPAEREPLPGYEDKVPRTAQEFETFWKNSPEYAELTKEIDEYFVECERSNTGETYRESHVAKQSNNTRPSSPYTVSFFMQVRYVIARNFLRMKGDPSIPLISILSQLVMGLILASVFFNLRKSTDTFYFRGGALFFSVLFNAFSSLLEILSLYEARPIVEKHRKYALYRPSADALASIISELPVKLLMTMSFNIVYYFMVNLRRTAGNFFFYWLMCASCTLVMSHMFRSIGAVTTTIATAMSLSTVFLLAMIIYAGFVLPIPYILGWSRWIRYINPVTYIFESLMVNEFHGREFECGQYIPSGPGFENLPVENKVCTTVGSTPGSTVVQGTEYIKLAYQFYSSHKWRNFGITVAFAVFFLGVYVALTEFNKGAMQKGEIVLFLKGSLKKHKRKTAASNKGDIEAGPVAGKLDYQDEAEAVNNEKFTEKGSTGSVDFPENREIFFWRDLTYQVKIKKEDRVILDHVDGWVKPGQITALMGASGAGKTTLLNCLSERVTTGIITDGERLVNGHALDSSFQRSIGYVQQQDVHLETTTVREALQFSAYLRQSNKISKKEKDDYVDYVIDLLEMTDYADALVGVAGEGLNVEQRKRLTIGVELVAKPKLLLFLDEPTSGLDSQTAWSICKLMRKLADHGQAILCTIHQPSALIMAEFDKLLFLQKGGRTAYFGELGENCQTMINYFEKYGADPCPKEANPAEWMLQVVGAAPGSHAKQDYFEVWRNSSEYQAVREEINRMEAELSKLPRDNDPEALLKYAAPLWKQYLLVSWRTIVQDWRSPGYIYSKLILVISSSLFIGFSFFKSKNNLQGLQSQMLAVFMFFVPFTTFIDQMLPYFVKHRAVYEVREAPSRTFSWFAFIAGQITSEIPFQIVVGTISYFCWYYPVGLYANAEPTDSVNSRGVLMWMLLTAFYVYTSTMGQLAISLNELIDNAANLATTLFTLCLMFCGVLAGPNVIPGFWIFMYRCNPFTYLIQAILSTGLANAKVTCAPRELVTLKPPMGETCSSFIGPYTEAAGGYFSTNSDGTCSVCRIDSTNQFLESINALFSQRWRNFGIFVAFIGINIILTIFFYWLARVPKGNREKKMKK

[4] = target: T1, Multidrug resistance protein CDR1; test: CaCdr1 efflux pump inhibitor potency, dose response, singleplex, Cherry Pick2 set (AID 623996); details: read-out: EC50_MICROM
[5] = target: T2, Multidrug resistance protein CDR2; test: CaCDR2 efflux pump inhibitors in yeast, dose response, S. cerevisiae AD1-8u, singleplex, Cherry Pick2 set (AID 623994); details: read-out: EC50_MICROM
[6] = target: T3, High affinity choline transporter 1 (Homo sapiens, UniProt Q9GZV3); test: CHT inhibitors, dose response, cell-based, 5-point CRC, membrane potential dye (AID 504840)
T3 sequence (Q9GZV3 whole entry): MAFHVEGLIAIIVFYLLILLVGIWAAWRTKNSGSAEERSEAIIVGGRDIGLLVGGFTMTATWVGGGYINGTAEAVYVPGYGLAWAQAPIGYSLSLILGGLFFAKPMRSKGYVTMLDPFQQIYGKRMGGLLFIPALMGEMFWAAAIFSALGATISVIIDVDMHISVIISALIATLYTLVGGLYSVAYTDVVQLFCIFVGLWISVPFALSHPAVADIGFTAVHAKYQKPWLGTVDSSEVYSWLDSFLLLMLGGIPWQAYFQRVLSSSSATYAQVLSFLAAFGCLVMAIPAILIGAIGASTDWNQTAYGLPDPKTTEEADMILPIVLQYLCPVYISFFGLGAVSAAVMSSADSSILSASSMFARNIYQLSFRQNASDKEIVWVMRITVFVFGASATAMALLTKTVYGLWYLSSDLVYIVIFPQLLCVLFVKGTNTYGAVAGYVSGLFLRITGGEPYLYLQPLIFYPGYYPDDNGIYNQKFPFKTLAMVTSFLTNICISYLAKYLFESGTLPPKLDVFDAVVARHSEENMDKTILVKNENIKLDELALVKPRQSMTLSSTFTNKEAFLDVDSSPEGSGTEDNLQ

[7] = target: T3, High affinity choline transporter 1; test: CHT inhibitors, dose response, cell-based, 10-point CRC, membrane potential dye (AID 588401);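 further: membrane potential dye fluorescence of choline-evoked depolarization via CHT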

T1 sequence (P43071 whole entry, looked up): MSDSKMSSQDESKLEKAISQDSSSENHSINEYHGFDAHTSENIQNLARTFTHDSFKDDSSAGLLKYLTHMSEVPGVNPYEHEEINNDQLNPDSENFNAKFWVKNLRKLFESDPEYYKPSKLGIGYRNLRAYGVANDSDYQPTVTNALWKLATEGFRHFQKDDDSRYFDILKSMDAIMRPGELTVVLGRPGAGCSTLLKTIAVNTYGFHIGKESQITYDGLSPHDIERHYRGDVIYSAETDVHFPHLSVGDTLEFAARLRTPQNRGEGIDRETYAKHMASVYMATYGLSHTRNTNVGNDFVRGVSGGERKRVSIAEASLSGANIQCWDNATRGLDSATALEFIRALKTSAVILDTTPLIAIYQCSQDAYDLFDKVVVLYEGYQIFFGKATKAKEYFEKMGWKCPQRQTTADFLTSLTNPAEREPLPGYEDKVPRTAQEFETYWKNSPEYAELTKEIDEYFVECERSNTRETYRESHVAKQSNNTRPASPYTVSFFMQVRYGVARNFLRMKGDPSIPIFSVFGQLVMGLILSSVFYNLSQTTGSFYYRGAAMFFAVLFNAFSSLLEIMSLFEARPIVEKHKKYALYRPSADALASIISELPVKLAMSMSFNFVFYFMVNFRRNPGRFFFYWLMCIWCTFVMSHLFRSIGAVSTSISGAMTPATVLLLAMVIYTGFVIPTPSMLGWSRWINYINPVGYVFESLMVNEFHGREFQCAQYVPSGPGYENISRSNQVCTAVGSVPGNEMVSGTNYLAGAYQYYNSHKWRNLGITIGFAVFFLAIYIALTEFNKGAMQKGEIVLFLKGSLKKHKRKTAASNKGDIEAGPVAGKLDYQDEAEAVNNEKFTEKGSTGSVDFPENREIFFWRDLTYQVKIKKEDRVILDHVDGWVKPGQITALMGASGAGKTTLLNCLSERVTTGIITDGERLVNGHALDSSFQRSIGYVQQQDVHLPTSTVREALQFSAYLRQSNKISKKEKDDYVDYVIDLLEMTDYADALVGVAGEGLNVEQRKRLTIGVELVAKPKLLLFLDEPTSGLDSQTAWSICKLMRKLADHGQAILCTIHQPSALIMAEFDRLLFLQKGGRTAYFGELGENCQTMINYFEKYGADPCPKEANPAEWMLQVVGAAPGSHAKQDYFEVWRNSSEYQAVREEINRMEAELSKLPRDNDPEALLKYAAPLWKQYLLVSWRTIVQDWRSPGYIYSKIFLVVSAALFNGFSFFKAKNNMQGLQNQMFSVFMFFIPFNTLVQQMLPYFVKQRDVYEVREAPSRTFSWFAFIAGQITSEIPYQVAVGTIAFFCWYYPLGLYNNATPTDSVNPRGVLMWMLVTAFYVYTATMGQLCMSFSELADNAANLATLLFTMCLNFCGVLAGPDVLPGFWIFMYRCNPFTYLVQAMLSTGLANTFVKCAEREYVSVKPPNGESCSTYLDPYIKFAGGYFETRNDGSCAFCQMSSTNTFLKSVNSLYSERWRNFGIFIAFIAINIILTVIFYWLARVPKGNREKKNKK
Sequence of Benomyl/methotrexate resistance protein (P28873 whole entry): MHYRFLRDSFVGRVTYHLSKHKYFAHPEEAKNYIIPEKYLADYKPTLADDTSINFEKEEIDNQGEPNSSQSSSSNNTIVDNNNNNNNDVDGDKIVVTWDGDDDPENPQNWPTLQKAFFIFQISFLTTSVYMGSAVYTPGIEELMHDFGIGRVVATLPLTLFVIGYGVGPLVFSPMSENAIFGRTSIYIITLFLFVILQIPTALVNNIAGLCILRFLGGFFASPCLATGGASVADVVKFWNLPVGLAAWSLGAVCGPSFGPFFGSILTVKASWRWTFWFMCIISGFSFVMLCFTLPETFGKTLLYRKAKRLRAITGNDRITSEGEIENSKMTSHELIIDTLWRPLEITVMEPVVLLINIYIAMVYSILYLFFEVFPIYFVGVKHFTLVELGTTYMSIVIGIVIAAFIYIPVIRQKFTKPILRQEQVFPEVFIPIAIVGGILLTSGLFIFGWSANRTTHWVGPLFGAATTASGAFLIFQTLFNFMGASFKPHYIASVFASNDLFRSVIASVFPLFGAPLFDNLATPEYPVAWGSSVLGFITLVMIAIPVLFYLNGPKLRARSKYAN

COc1ccc2sc(-c3ccccc3OC)c(-c3ccc(OCCN(C)C)cc3)c2c1
active: EC50 [1] 10.5 µM | EC50 [2] 13.3 µM | EC50 [3] 10.2 µM | EC50 [4] 20.1 µM | EC50 [5] 5.43 µM

CCOCCCNS(=O)(=O)c1ccc(NC(=O)c2ccc([N+](=O)[O-])cc2Cl)cc1
active: IC50 [6] 1.45 µM | IC50 [7] 501 nM
